Values belong to the compound of their own block, whether it stands above or below them.
Experiments:
[1] = system: Plasmodium yoelii nigeriensis; assay: Antimalarial activity against multidrug-resistant Plasmodium yoelii nigeriensis infected mouse assessed as protection at 24 mg/kg for 4 days; format: functional
[2] = system: Plasmodium yoelii nigeriensis; assay: Antimalarial activity against multidrug-resistant Plasmodium yoelii nigeriensis infected mouse assessed as protection at 12 mg/kg for 4 days; format: functional
[3] = system: Plasmodium falciparum; assay: Antimalarial activity against Plasmodium falciparum by culture assay; format: functional, organism-based
[4] = system: Plasmodium falciparum; assay: Antimalarial activity against Plasmodium falciparum by Heme-HRP assay; format: functional, organism-based
[5] = system: Plasmodium falciparum; assay: Antimalarial activity Plasmodium falciparum NF54; format: functional, organism-based

SMILES: C[C@@H]1[C@H]2CC[C@@H](C)[C@@H]3CC[C@]4(C)OO[C@@]23[C@H](C[C@H]1OC(=O)C1c2ccccc2-c2ccccc21)O4
Activity [1]: 100% | Activity [2]: 80%

IC50 [3]: 48 nM | IC50 [4]: 60000 nM
SMILES: Fc1ccc(CNCCOCCOCCNc2ccnc3cc(Cl)ccc23)c(F)c1

SMILES: CCOC(=O)CC1CCC2(OCCCC2CC(=O)OCC)OO1 (stereo not given)
IC50 [5]: 160 nM

Source: ChEMBL document CHEMBL3351854, “A comprehensive review on synthetic approach for antimalarial agents” (Eur J Med Chem, 2014)
